Counter-ions that a name gives are not always drawn.

For orientation: mortality means the share of the test organisms that died. Higher therefore signals a strong lethal effect.

Data set [1] is described as follows: Toxicity test, mortality rate 24 hours after administration. The note with it: mouse, in vivo. As to the method:
Each of the compounds prepared in the above-mentioned examples was administered into a mouse (ddY strain, male). In each case, oral administration (p.o.) and intra peritoneal administration (i.p.) were separately carried out in a dose of 300 mg/kg and 250 mg/kg, respectively.
A mortality rate (number of specimens: one group=2 to 4 mice) of the mice 24 hours after the administration was calculated, and the results are set forth in Table 3.
Following the same procedure as in Toxicity Test 1, toxicity of the respective compounds prepared in the above examples in Table 5 was tested to calculate a mortality rate of mice.
Administration was made by oral administration (p.o.) in an amount of 300 mg/kg of each compound for one mouse.
Following the same procedure as in Toxicity Test 1, toxicity of the respective compounds prepared in the above examples in Table 7 was tested to calculate a mortality rate of mice.

Data set [2] relates to ventricular muscle refractory period. Kind of data set: Influence on ventricular muscle refractory period (ERP). It counts as in vivo, mongrel dog. The note with it: Canis lupus familiaris, iv, i.v., (W-Y)/Y×100, read-out: ERP (%; extensibility of refractory period). Here is the method:
(2) Influence on ventricular muscle refractory period Refractory periods were measured in the following manner before and after each of the compounds and d-sotalol shown in Table 2 was separately administered to a vein or a duodenum, and ERP (%; extensibility of refractory period) was calculated from the measured values: ERP (%)=(W-Y)/Y×100 W: Refractory period after administration Y: Refractory period before administration To a mongrel adult dog, 30 mg/kg of pentobarbital was administered intravenously, and after being anesthetized, a pair of silver-silver chloride electrodes separated by 3 mm was sewn on an opened right ventricule, and electrical stimulation was given at an interval of 400 msec at a duration time of 4 msec under a current twice as much as the threshold. Afterward, a small amount of alcohol was injected into a sinus artery in order to extinguish a pacemaker activity, and the ventricular refractory period (ERP) was measured under ventricule pacing. That is, each 1 train comprised 10 stimulations having intervals of 400 msec, and an interval between the trains was usually 400 msec. However, this interval was shortened 10 msec by 10 msec at the time of the refractory period measurement, and an interval between the trains at the time when reaction to the first stimulation of the train disappeared was regarded as the refractory period. In this case, the electrical stimulation was fed in accordance with a program by a heart stimulation device (Diamedical Co., Ltd.; DHM-226-3).

The subject of data set [3] is Purkinje fiber of the right ventricular free wall (myocardial action potential). The data set can be described thus: Influence on myocardial action potential duration time (APD75), isolated right ventricular free wall, microelectrode in Purkinje fiber. The class given is cell-based, dog. Particulars: Canis lupus familiaris, 20 min, 20 minutes' incubation; for activation at 1 µg/mL: 1.0 μg/ml; for activation at 1 µg/mL / activation at 3 µg/mL / activation at 10 µg/mL: (B-A)/A×100, read-out: APD75 (%); for activation at 3 µg/mL: 3.0 μg/ml; for activation at 10 µg/mL: 10.0 μg/ml.

Take `CCN(CCCCc1ccc([N+](=O)[O-])cc1)CCNc1cc(=O)n(C)c(=O)n1C` [Compound 22]: the mortality at 24 h in data set [1] (ip, 250 mg/kg (i.p.)) amounted to 50%; in data set [1] (po, 300 mg/kg (p.o.)), 0%.

In the case of `Cn1c(N2CCN(CCNC(=O)c3ccc([N+](=O)[O-])cc3)CC2)cc(=O)n(C)c1=O` [Compound 45, 1,3-dimethyl-6-{4-[2-(4-nitrobenzoylamino)ethyl]piperazin-1-yl}-2,4(1H,3H)-pyrimidinedione hydrochloride], in data set [1] (po, 300 mg/kg (p.o.)), the mortality at 24 h was 0%.

For the molecule `CC(=O)c1ccc(OCCCN2CCN(c3cc(=O)n(C)c(=O)n3C)CC2)c([N+](=O)[O-])c1` [Compound 77, 1,3-dimethyl-6-{4-[3-(4-acetyl-2-nitrophenoxy)propyl]piperazin-1-yl}-2,4(1H,3H)-pyrimidinedione oxalate], the mortality at 24 h in data set [1] (po, 300 mg/kg (p.o.)) was 0%.

In data set [1] (po, 300 mg/kg (p.o.)), `Cn1c(N2CCN(CCOc3ccc([N+](=O)[O-])cc3C(=O)c3ccc(Br)cc3)CC2)cc(=O)n(C)c1=O` [Compound 100] showed a mortality at 24 h of 0%.

Take `Cn1c(N2CCN(CCOc3ccc(C(=O)c4ccccc4)cc3[N+](=O)[O-])CC2)cc(=O)n(C)c1=O` [Compound 103]: the mortality at 24 h in data set [1] (po, 300 mg/kg (p.o.)) amounted to 0%.

For `Cn1c(N2CCN(c3ccc([N+](=O)[O-])cc3C(=O)c3ccccc3)CC2)cc(=O)n(C)c1=O` [Compound 128, 1,3-dimethyl-6-{4-(2-benzoyl-4-nitrophenyl)piperazin-1-yl}-2,4(1H,3H)-pyrimidinedione oxalate], the mortality at 24 h in data set [1] (po, 300 mg/kg (p.o.)) stood at 0%.

On to `Cn1c(NCCNc2ccc([N+](=O)[O-])cc2C(=O)c2ccccc2)cc(=O)n(C)c1=O` [Compound 131, 1,3-dimethyl-6-[2-(2-benzoyl-4-nitroanilino)ethylamino]-2,4(1H,3H)-pyrimidinedione oxalate], for which the mortality at 24 h in data set [1] (po, 300 mg/kg (p.o.)) stood at 0%.

As to `Cn1c(N2CCN(CCCc3ccc(C(=O)c4ccccc4)cc3[N+](=O)[O-])CC2)cc(=O)n(C)c1=O` [Compound 136, 1,3-dimethyl-6-{4-[3-(4-benzoyl-2-nitrophenyl)propyl]piperazin-1-yl}-2,4(1H,3H)-pyrimidinedione hydrochloride], in data set [2], the change in vivo at 0.3 mg/kg is 7.7%, the change in vivo at 1 mg/kg stood at 15.4% and the change in vivo at 3 mg/kg turned out to be 15.4%. Further, in data set [3], the activation at 1 µg/mL came out at 11% and the activation at 3 µg/mL was 14%.

For the molecule `Cn1c(N2CCN(CCc3ccc(C(=O)c4ccccc4)cc3[N+](=O)[O-])CC2)cc(=O)n(C)c1=O` [Compound 137, 1,3-dimethyl-6-{4-[2-(4-benzoyl-2-nitrophenyl)ethyl]piperazin-1-yl}-2,4(1H,3H)-pyrimidinedione oxalate], in data set [2], the change in vivo at 0.1 mg/kg turned out to be 6.3%, the change in vivo at 0.3 mg/kg worked out at 6.3%, the change in vivo at 1 mg/kg is 12.5% and the change in vivo at 3 mg/kg turned out to be 18.8%. In data set [3], the activation at 1 µg/mL amounted to 32% and the activation at 3 µg/mL stood at 51%.

In the case of `Cn1c(N2CCN(CCCOc3ccc(Cl)cc3[N+](=O)[O-])CC2)cc(=O)n(C)c1=O` [Compound 140, 1,3-dimethyl-6-{4-[3-(4-chloro-2-nitrophenoxy)propyl]piperazin-1-yl}-2,4(1H,3H)-pyrimidinedione hydrochloride], in data set [2], the change in vivo at 0.1 mg/kg stood at 0%, the change in vivo at 0.3 mg/kg is 3.55% and the change in vivo at 1 mg/kg came to 3.55%. Further, in data set [3], the activation at 1 µg/mL is 6%, the activation at 3 µg/mL worked out at 17% and the activation at 10 µg/mL came out at 29%.

With `Cn1c(N2CCN(CCCOc3ccc([N+](=O)[O-])c(C(F)(F)F)c3)CC2)cc(=O)n(C)c1=O` [Compound 150, 1,3-dimethyl-6-{4-[3-(3-trifluoromethyl-4-nitrophenyloxy)propyl]piperazin-1-yl}-2,4(1H,3H)-pyrimidinedione oxalate], in data set [2], the change in vivo at 0.1 mg/kg came to 0%, the change in vivo at 0.3 mg/kg is 0%, the change in vivo at 1 mg/kg is 6.3% and the change in vivo at 3 mg/kg was 6.3%. For the same molecule, the activation at 3 µg/mL in data set [3] is 16%.

Regarding `Cn1c(N2CCN(CCCOc3ccc([N+](=O)[O-])cc3N)CC2)cc(=O)n(C)c1=O` [Compound 153, 1,3-dimethyl-6-{4-[3-(2-amino-4-nitrophenyloxy)propyl]piperazin-1-yl}-2,4(1H,3H)-pyrimidinedione oxalate], in data set [2], the change in vivo at 0.1 mg/kg was found to be 6.1%, the change in vivo at 0.3 mg/kg is 9.1% and the change in vivo at 1 mg/kg came to 18.3%. Besides, in data set [3], the activation at 1 µg/mL was 20% and the activation at 3 µg/mL stood at 25%.

As for `COC(=O)c1ccc(OCCCN2CCN(c3cc(=O)n(C)c(=O)n3C)CC2)c([N+](=O)[O-])c1` [Compound 154, 1,3-dimethyl-6-{4-[3-(4-methoxycarbonyl-2-nitrophenyloxy)propyl]piperazin-1-yl}-2,4(1H,3H)-pyrimidinedione oxalate], in data set [2], the change in vivo at 0.1 mg/kg was found to be 0%, the change in vivo at 0.3 mg/kg came out at 0%, the change in vivo at 1 mg/kg was found to be 5.9% and the change in vivo at 3 mg/kg was 11.8%. Besides, in data set [3], the activation at 1 µg/mL was determined as 9%, the activation at 3 µg/mL amounted to 12% and the activation at 10 µg/mL came to 20%.

For `Cn1c(N2CCN(CCCOc3ccc([N+](=O)[O-])cc3O)CC2)cc(=O)n(C)c1=O` [Compound 162, 1,3-dimethyl-6-{4-[3-(2-hydroxy-4-nitrophenyloxy)propyl]piperazin-1-yl}-2,4(1H,3H)-pyrimidinedione hydrochloride], in data set [2], the change in vivo at 0.1 mg/kg was determined as 0%, the change in vivo at 0.3 mg/kg was 0%, the change in vivo at 1 mg/kg worked out at 0% and the change in vivo at 3 mg/kg came out at 0%. Also, in data set [3], the activation at 1 µg/mL came to 19%, the activation at 3 µg/mL is 41% and the activation at 10 µg/mL was found to be 60%.

With `COc1cc([N+](=O)[O-])ccc1OCCCN1CCN(c2cc(=O)n(C)c(=O)n2C)CC1` [Compound 164, 1,3-dimethyl-6-{4-[3-(2-methoxy-4-nitrophenyloxy)propyl]piperazin-1-yl}-2,4(1H,3H)-pyrimidinedione hydrochloride], in data set [2], the change in vivo at 0.1 mg/kg is 0%, the change in vivo at 0.3 mg/kg was determined as 7.7%, the change in vivo at 1 mg/kg was 15.4% and the change in vivo at 3 mg/kg was determined as 15.4%. Besides, in data set [3], the activation at 3 µg/mL is 8% and the activation at 10 µg/mL turned out to be 12%.

`Cn1c(NCCN(CCCc2ccc([N+](=O)[O-])cc2)CCOC(=O)c2ccccc2)cc(=O)n(C)c1=O` [Compound 168, 1,3-dimethyl-6-{2-[N-(2-benzoyloxyethyl)-3-(4-nitrophenyl)propylamino]ethylamino}-2,4(1H,3H)-pyrimidinedione oxalate]: in data set [2], the change in vivo at 0.1 mg/kg is 6%, the change in vivo at 0.3 mg/kg worked out at 12%, the change in vivo at 1 mg/kg came out at 18% and the change in vivo at 3 mg/kg is 18%. In addition, in data set [3], the activation at 1 µg/mL was found to be 48%, the activation at 3 µg/mL is 55% and the activation at 10 µg/mL was found to be 68%.

Turning to `CC(C)NC[C@@H](O)c1ccc(NS(C)(=O)=O)cc1` [d-sotalol, reference compound], in data set [2], the change in vivo at 0.1 mg/kg came out at 1.7%, the change in vivo at 0.3 mg/kg turned out to be 6.7%, the change in vivo at 1 mg/kg was found to be 8.7% and the change in vivo at 3 mg/kg amounted to 15.5%. This molecule also gave an activation at 0.3 µg/mL in data set [3] (0.3 μg/ml, (B-A)/A×100) of 0%. In addition, in data set [3], the activation at 1 µg/mL is 3%, the activation at 3 µg/mL worked out at 7.4% and the activation at 10 µg/mL worked out at 15.8%.

These data come from patent US5008267A, “Pyrimidinedione compounds, method of producing the same and antiarrythmic agents containing the same” (Mitsui Toatsu Chemicals, Incorporated, priority 1988, dated 1991).
